# Measured values as given in the supplement of paper PMC10307832.
# How the values were obtained:
# Assay in all cases: relative viability (nuclei count vs DMSO), 5 days (fraction); higher = more cells survive
# 4EGI-1 + Alpelisib = compound: O=C(O)C(Cc1ccccc1[N+](=O)[O-])=NNc1nc(-c2ccc(Cl)c(Cl)c2)cs1 (mixture of isomers) [4EGI-1] + Cc1nc(NC(=O)N2CCC[C@H]2C(N)=O)sc1-c1ccnc(C(C)(C)C(F)(F)F)c1 [Alpelisib] (partner 2 µM)
# Method in brief: (§1)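 Values are medians from duplicate plates. Each reflects relative viability, defined as the nuclei count of treated wells over that of vehicle wells. Lung cancer cell lines in 1536-well plates were pin-tool dosed one day after seeding with one drug alone or with a fixed anchor-drug dose plus five library-drug doses (not always all listed) in √10 steps, then fixed, stained and imaged at 4× after 5 days.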
# XMD8-85 + AZD7762 = compound: CN1CCN(CC1)C2=CC(=C(C=C2)NC3=NC=C4C(=N3)N(C5=CC=CC=C5C(=O)N4C)C)OC [XMD8-85] + NC(=O)Nc1cc(-c2cccc(F)c2)sc1C(=O)N[C@H]1CCCNC1 [AZD7762] (partner 0.2 µM)
# Method in brief: as §1
# XMD8-85 + Tozasertib = compound: CN1CCN(CC1)C2=CC(=C(C=C2)NC3=NC=C4C(=N3)N(C5=CC=CC=C5C(=O)N4C)C)OC [XMD8-85] + Cc1cc(Nc2cc(N3CCN(C)CC3)nc(Sc3ccc(NC(=O)C4CC4)cc3)n2)n[nH]1 [Tozasertib] (partner 0.1 µM)
# Method in brief: as §1
# XMD8-85 + OSI-027 = compound: CN1CCN(CC1)C2=CC(=C(C=C2)NC3=NC=C4C(=N3)N(C5=CC=CC=C5C(=O)N4C)C)OC [XMD8-85] + COc1cccc2cc(-c3nc([C@H]4CC[C@H](C(=O)O)CC4)n4ncnc(N)c34)[nH]c12 [OSI-027] (partner 0.5 µM)
# Method in brief: as §1
Cell Line,relative viability (4EGI-1 + Alpelisib; first compound 0.5 µM),relative viability (4EGI-1 + Alpelisib; first compound 1.581 µM),relative viability (4EGI-1 + Alpelisib; first compound 5 µM),relative viability (4EGI-1 + Alpelisib; first compound 15.81 µM),relative viability (4EGI-1 + Alpelisib; first compound 50 µM),relative viability (XMD8-85 + AZD7762; first compound 0.253 µM),relative viability (XMD8-85 + AZD7762; first compound 0.8 µM),relative viability (XMD8-85 + AZD7762; first compound 2.53 µM),relative viability (XMD8-85 + AZD7762; first compound 8 µM),relative viability (XMD8-85 + Tozasertib; first compound 0.08 µM),relative viability (XMD8-85 + Tozasertib; first compound 0.253 µM),relative viability (XMD8-85 + Tozasertib; first compound 0.8 µM),relative viability (XMD8-85 + Tozasertib; first compound 2.53 µM),relative viability (XMD8-85 + Tozasertib; first compound 8 µM),relative viability (XMD8-85 + OSI-027; first compound 0.08 µM),relative viability (XMD8-85 + OSI-027; first compound 0.253 µM),relative viability (XMD8-85 + OSI-027; first compound 0.8 µM),relative viability (XMD8-85 + OSI-027; first compound 2.53 µM),relative viability (XMD8-85 + OSI-027; first compound 8 µM),relative viability (XMD8-85 + AZD7762; first compound 0.08 µM)
NCI-H1793,0.868,0.883,0.679,0.668,0.577,0.408,0.483,0.344,0.413,0.277,0.322,0.297,0.289,0.255,0.317,0.259,0.243,0.286,0.276,–
NCI-H3122,0.866,0.718,0.792,0.775,0.646,1.08,1.05,1.06,1.14,0.427,0.453,0.373,0.237,0.177,0.867,1.02,1.34,1.08,0.532,1.05
NCI-H596,0.576,0.524,0.508,0.574,0.461,0.944,1.06,1.1,0.966,0.75,0.834,0.975,0.728,0.488,0.69,0.918,0.773,0.795,–,1.18
NCI-H2087,1.17,1.09,0.985,0.839,0.221,1.25,1.39,1.23,0.96,0.265,0.223,0.238,0.245,0.177,0.612,0.586,0.582,0.686,0.552,1.42
NCI-H2342,–,–,–,–,–,0.478,0.552,0.511,0.488,0.529,0.46,0.478,0.424,0.405,0.606,0.605,–,0.594,0.641,0.509
NCI-H1563,0.998,0.884,0.983,0.906,0.697,–,–,–,–,–,–,–,–,–,0.819,–,0.755,0.715,0.789,–
NCI-H2228,0.664,0.672,0.82,0.61,0.177,–,–,–,–,0.194,0.261,0.267,0.207,0.197,0.544,0.879,0.686,0.6,0.336,–
SK-LU-1,1.23,1.01,1.26,0.806,0.232,–,–,–,–,0.278,0.328,0.276,0.294,0.185,0.287,0.383,–,0.365,0.297,–
Calu-6,1.08,0.493,1.21,0.933,0.375,–,–,–,–,–,–,–,–,–,–,–,–,–,–,–
NCI-H1299,1.03,1.08,0.989,0.955,1.04,–,–,–,–,–,–,–,–,–,–,–,–,–,–,–
NCI-H1650,–,–,–,–,–,–,–,–,–,0.358,0.409,0.413,0.216,0.177,0.674,0.47,0.599,0.637,0.357,–
COR-L23,0.873,0.509,0.885,0.562,0.112,–,–,–,–,0.222,0.216,0.197,0.163,0.144,0.592,–,0.91,0.733,0.597,–
EBC-1,0.947,0.876,1.08,0.477,0.273,–,–,–,–,–,–,–,–,–,–,–,–,–,–,–
UMC-11,1.06,1.03,1.12,0.898,0.306,–,–,–,–,0.251,0.209,0.233,0.248,0.197,0.457,0.461,0.521,0.436,0.371,–
NCI-H1703,0.414,0.305,0.387,0.338,0.381,0.147,0.133,0.119,0.107,–,–,–,–,–,–,–,–,–,–,0.107
NCI-H661,0.82,0.446,1.26,0.535,0.229,–,–,–,–,0.383,0.346,0.366,0.353,0.392,0.636,0.709,0.775,0.806,0.515,–
NCI-H2009,1.16,1.14,1.25,1.07,0.585,–,–,–,–,0.727,0.696,0.703,0.416,0.308,0.589,0.704,0.638,0.508,0.324,–
NCI-H1648,–,–,–,–,–,0.572,0.587,0.717,0.726,0.438,0.394,–,–,0.324,0.248,0.268,–,–,0.228,0.483
NCI-H520,0.918,0.754,1.02,0.866,0.543,–,–,–,–,0.388,0.414,0.44,0.406,0.341,0.245,0.257,0.232,0.257,0.195,–
SW 900,–,–,–,–,–,0.669,0.589,0.626,0.304,0.553,0.657,0.557,0.424,0.312,0.583,0.623,0.581,0.553,0.304,0.555
NCI-H522,–,–,–,–,–,0.851,0.798,0.859,0.69,0.557,0.562,0.41,0.519,0.467,0.659,0.747,0.66,0.828,0.596,0.697
SW 1573,1.1,0.644,0.879,0.785,0.663,–,–,–,–,0.222,0.197,0.175,0.174,0.156,0.566,0.61,0.669,0.607,0.327,–
ChaGo-K-1,–,–,–,–,–,0.883,0.855,0.903,0.91,0.225,0.233,0.207,0.196,0.144,0.555,0.532,0.599,0.605,0.422,0.825
